The values below come from patent US11396517B1, “Exo-aza spiro inhibitors of menin-MLL interaction” (Janssen Pharmaceutica NV, priority 2017, dated 2022).

In assay [1] the target is T1, menin (Homo sapiens, UniProt O00255, T541A).
T1 construct: Menin (a.a. 1-610-6×his tag)
T1 sequence (O00255 with tags, fused parts or gaps T541A): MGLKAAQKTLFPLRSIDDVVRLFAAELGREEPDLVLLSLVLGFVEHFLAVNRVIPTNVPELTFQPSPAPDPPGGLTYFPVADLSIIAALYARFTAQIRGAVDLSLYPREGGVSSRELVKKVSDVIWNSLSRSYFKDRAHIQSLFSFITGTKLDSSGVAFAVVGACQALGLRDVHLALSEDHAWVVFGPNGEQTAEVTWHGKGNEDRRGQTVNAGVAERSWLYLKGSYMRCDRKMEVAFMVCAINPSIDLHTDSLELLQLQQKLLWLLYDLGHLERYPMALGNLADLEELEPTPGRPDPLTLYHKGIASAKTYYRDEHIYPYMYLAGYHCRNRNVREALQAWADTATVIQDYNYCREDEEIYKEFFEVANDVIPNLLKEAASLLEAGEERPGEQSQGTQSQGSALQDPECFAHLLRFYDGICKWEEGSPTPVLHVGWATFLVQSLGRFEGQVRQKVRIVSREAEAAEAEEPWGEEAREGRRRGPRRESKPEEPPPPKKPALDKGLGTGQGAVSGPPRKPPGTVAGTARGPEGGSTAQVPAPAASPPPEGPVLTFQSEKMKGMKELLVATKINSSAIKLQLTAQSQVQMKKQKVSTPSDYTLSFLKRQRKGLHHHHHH
The experiment in a line: Menin/MLL homogenous time-resolved fluorescence (HTRF) assay. The class given is binding. As to conditions: location 2; read-out: (2) location 2 Menin HTRF assay (IC50 (nM)). The method in brief: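 Displacement of 75 nM FITC-MBM1 from terbium-cryptate-labeled His-tagged menin 1-610 ([…]) was read as the 520/490 nm HTRF ratio. Compound (11-point, 3-fold series) got 5 min with menin before peptide, then 15 min at ambient; 0.5% DMSO, Tris pH 7.5.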

Assay [2] has as its system MV-4-11. The experiment in a line: Proliferation assay B (spheroid assay) MV-4-11. It counts as cell-based, human. As to conditions: Homo sapiens, MV4-11, 192 h, MV-4-11 cells, confluence at day 8, absolute IC50; read-out: (3b) Spheroid assay MV-4--11 (IC50(μM)) Assay B. Put shortly:
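IC50 derived from % effect on day-8 imaged confluence, scaled between DMSO-treated cells (high) and 1 μM staurosporine (low), using a variable-slope fit constrained 0-100%. Cells seeded as spheroids in ultra-low-attachment plates and exposed to compound for 8 days, 0.3% DMSO.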

Assay [3] relates to K562. Nature of the assay: Proliferation assay B (spheroid assay) K562 control cell line. It counts as cell-based. As to conditions: Homo sapiens, 192 h; K562 cells (MLL wildtype control), confluence at day 8; read-out: (3b) Spheroid assay K562 Assay B. The method, then:
3b) Proliferation Assay B
The anti-proliferative effect of menin/MLL protein/protein interaction inhibitor test compounds was assessed in human leukemia cell lines. The cell lines MV-4-11 and MOLM14 harbor MILL translocations and express the MILL fusion proteins MLL-AF4 and MLL-AF9, respectively, as well as the wildtype protein from the second allele. […] K562 was used as a control cell line containing two MLL wildtype alleles in order to exclude compounds that display general cytotoxic effects.
MV-4-11 and MOLM14 were cultured in RPMI-1640 (Sigma Aldrich) supplemented with 10% fetal bovine serum (HyClone), 2 mM L-glutamine (Sigma Aldrich) and 50 μg/ml gentamycin (Gibco). K562 were propagated in RPMI-1640 (Sigma Aldrich) supplemented with 20% fetal bovine serum (HyClone), 2 mM L-glutamine (Sigma Aldrich) and 50 μg/ml gentamycin (Gibco).
In order to assess the anti-proliferative effects, 1,500 MV-4-11, 300 MOLM14 cells or 750 K562 cells were seeded in 200 μl media per well in 96-well round bottom, ultra-low attachment plates (Costar, catalogue number 7007). Cell seeding numbers were chosen based on growth curves to ensure linear growth throughout the experiment. Test compounds were added at different concentrations and the DMSO content was normalized to 0.3%. Cells were incubated for 8 d at 37° C. and 5% CO2. Spheroid like growth was measured in real-time by live-cell imaging (IncuCyteZOOM, Essenbio, 4× objective) acquiring images at day 8. Confluence (%) as a measure of spheroid size was determined using an integrated analysis tool.
In order to determine the effect of the test compounds over time, the confluence in each well as a measure of spheroid size, was calculated. Confluence […] at the beginning of the experiment (t=0) was used as baseline for the calculation.
Absolute IC50 values were calculated as percent change in confluence as follows:
LC=Low Control: cells treated with 1 μM of the cytotoxic agent staurosporin
HC=High Control: Mean confluence (%) (DMSO treated cells) % Effect=100−(100*(Sample−LC)/(HC−LC))
To determine the IC50 a curve is fitted to the plot of % Effect vs Log 10 compound concentration using a sigmoidal fit with a variable slope and fixing the maximum to 100% and the minimum to 0%.

Turning to `FC(F)(F)Cc1cc2c(N3CCC4(CC(Nc5ccc6cc[nH]c6c5)C4)C3)ncnc2s1` (mixture of isomers) [Compound 311], the IC50 in assay [1] amounted to 70.5 nM; in assay [2] it was 2.62 µM.
Turning to `O=c1[nH]c2cc(CNC3CCC4(C3)CN(c3ncnc5sc(CC(F)(F)F)cc35)C4)ccc2o1` (single isomer, unassigned) [Compound 58], the IC50 in assay [1] was 2.9 nM; in assay [2], 0.11 µM; in assay [3], 14.1 µM.
In the case of `Cn1c(=O)[nH]c2cc(CNC3CCC4(C3)CN(c3ncnc5sc(CC(F)(F)F)cc35)C4)ccc21` (stereo not drawn) [Compound 54], the results for the IC50 in assay [1] and in assay [2] were 1.8 nM and 0.26 µM, respectively.
The matching figures for `CNC(=O)c1ccc(NC2CC3(CCN(c4ncnc5sc(CC(F)(F)F)cc45)C3)C2)cc1` (stereo not drawn) [Compound 93]: 5.8 nM and 0.16 µM.
